Laboratory results reported in article PMC11178805, “Ligand-based design of [^18F]OXD-2314 for PET imaging in non-Alzheimer’s disease tauopathies” (Nature Communications, 2024).

Experiment: Dynamic PET imaging with [^18F]OXD-2314 in baboons
Format: in vivo
Details: for Cerebellum SUV / Cortex SUV / Striatum SUV / Whole Brain SUV: PET time-activity curve, Figure S18; for whole brain peak uptake: n = 1
Method: Dynamic PET imaging was performed in a rhesus macaque (macaca mulatta) monkey following the injection of [^18F]OXD-2314 at baseline (104.9 MBq, n = 1) and was repeated in a second [^18F]OXD-2314 study (115.8 MBq, n = 1) where a displacing dose of unlabeled OXD-2314 (0.5 mg/kg) was administered 10 min after [^18F]OXD-2314 injection to verify the absence of specific binding in NHP brain. Venous blood samples were drawn to characterize the metabolic fate of [^18F]OXD-2314 in the macaque. Dynamic [^18F]OXD-2314 PET imaging was also performed in a male (106.6 MBq, n = 1) and a female (115.8 MBq, n = 1) baboon (papio anubis), and venous blood samples were drawn in both baboons to characterize potential effects of sex on radiometabolism. Bilateral regions of interest were defined on 5–8 contiguous axial image planes for the lateral temporal cerebral cortex, cerebellum, striatum, and whole brain, which were used to sample dynamic [^18F]OXD-2314 PET images to determine the time-varying radioactivity concentration expressed in SUV units. [^18F]OXD-2314 readily entered macaque brain (whole brain peak ~2.2 SUV at ~2 min) and distributed uniformly throughout cortical and subcortical grey matter regions (Fig. 5A). […] Radiometabolite analysis of macaque venous blood identified only one, polar radiometabolite, which increased from 37% at 10 min to 77% at 90 min post-injection and was not likely brain penetrant (Figs. S19, S20).
The rate of uptake and clearance of [^18F]OXD-2314 in the brains of a male and a female baboon were compared (Fig. 6A). Initial whole brain uptake was rapid in both baboons, with peak uptake achieved in ~2 min with an SUV of ~2.8 in the male baboon and an SUV of ~1.9 in the female baboon. […] It is not known whether the higher initial brain uptake of [^18F]OXD-2314 observed in a male baboon is due to sex differences, normal physiologic variability, or the additional variability introduced by the effects of anesthesia. No evidence of elevated uptake or retention in the baboon striatum following [^18F]OXD-2314 injection was observed (Fig. S16), a region where high levels of PSP and CBD pathology are expected. Therefore, the normal brain retention patterns of [^18F]OXD-2314 are unlikely to confound the detection of specific signal from PSP and CBD pathology in human subjects.
NHP imaging studies in a male (13 kg) macaca mulata monkey and male (25.7 kg) and female (14.2 kg) papio anubis baboons were carried out in accordance with the guidelines set forth by the Institutional Animal Care and Use Committee at the University of Pittsburgh. Additional details regarding the maintenance of an active environmental enrichment program for the housed NHPs are described in Supplemental Information. Dynamic [^18F]OXD-2314 PET imaging of the brains of the isoflurane anesthetized NHPs was performed using a Siemens Biograph mCT Flow 64-4 R PET/CT scanner ([…], maximum intrinsic spatial resolution of 4.3 mm FWHM[53]. Following a low-dose CT scan for attenuation correction of PET emission data, [^18F]OXD-2314 was injected intravenously and emission data were acquired in list-mode for a period of 90 min. Emission data were binned into a dynamic series of 32 frames (20 sec-10 min) and reconstructed using filtered back projection with Fourier rebinning (FORE + FBP) with standard corrections applied that included attenuation, scatter, electronics dead-time, and physical decay.

With `CO[C@H]1CCCN(c2ccc(-c3cc4cc(O)ccc4[nH]3)c([18F])n2)C1` [[^18F]OXD-2314] the “Cerebellum SUV” value (Time 2.75 min) was 3.523 SUV, the “Cortex SUV” value (Time 2.75 min) was 3.036 SUV and the “Striatum SUV” value (Time 2.75 min) was 3.616 SUV. For the same compound, the “Whole Brain SUV” value (Time 2.75 min) was 2.828 SUV, the “Cerebellum SUV” value (Time 3.25 min) was 3.2566 SUV and the “Cortex SUV” value (Time 3.25 min) was 2.891 SUV. The “Striatum SUV” value (Time 3.25 min) was 3.337 SUV, the “Whole Brain SUV” value (Time 3.25 min) was 2.7269 SUV and the “Cerebellum SUV” value (Time 3.75 min) was 3.5333 SUV. The “Cortex SUV” value (Time 3.75 min) was 2.848 SUV, the “Striatum SUV” value (Time 3.75 min) was 3.315 SUV and the “Whole Brain SUV” value (Time 3.75 min) was 2.707 SUV. For the same compound, the “Cerebellum SUV” value (Time 4.5 min) was 3.317 SUV, the “Cortex SUV” value (Time 4.5 min) was 2.817 SUV and the “Striatum SUV” value (Time 4.5 min) was 3.072 SUV. For the same compound, the “Whole Brain SUV” value (Time 4.5 min) was 2.623 SUV, the “Cerebellum SUV” value (Time 5.5 min) was 2.973 SUV and the “Cortex SUV” value (Time 5.5 min) was 2.612 SUV. The “Striatum SUV” value (Time 5.5 min) was 3.02 SUV, the “Whole Brain SUV” value (Time 5.5 min) was 2.516 SUV and the “Cerebellum SUV” value (Time 6.5 min) was 2.884 SUV. The “Cortex SUV” value (Time 6.5 min) was 2.534 SUV, the “Striatum SUV” value (Time 6.5 min) was 2.784 SUV and the “Whole Brain SUV” value (Time 6.5 min) was 2.429 SUV. For the same compound, the “Cerebellum SUV” value (Time 8 min) was 2.424 SUV, the “Cortex SUV” value (Time 8 min) was 2.368 SUV and the “Striatum SUV” value (Time 8 min) was 2.423 SUV. For the same compound, the “Whole Brain SUV” value (Time 8 min) was 2.257 SUV, the “Cerebellum SUV” value (Time 10 min) was 2.417 SUV and the “Cortex SUV” value (Time 10 min) was 2.197 SUV. The “Striatum SUV” value (Time 10 min) was 2.581 SUV, the “Whole Brain SUV” value (Time 10 min) was 2.094 SUV and the “Cerebellum SUV” value (Time 12 min) was 2.068 SUV. For the same compound, the “Cortex SUV” value (Time 12 min) was 2.057 SUV, the “Striatum SUV” value (Time 12 min) was 2.198 SUV and the “Whole Brain SUV” value (Time 12 min) was 1.998 SUV. The “Cerebellum SUV” value (Time 14 min) was 2.062 SUV, the “Cortex SUV” value (Time 14 min) was 1.889 SUV and the “Striatum SUV” value (Time 14 min) was 1.943 SUV. The “Whole Brain SUV” value (Time 14 min) was 1.8928 SUV, the “Cerebellum SUV” value (Time 17.5 min) was 1.827 SUV and the “Cortex SUV” value (Time 17.5 min) was 1.768 SUV. For the same compound, the “Striatum SUV” value (Time 17.5 min) was 1.893 SUV, the “Whole Brain SUV” value (Time 17.5 min) was 1.748 SUV and the “Cerebellum SUV” value (Time 22.5 min) was 1.519 SUV. The “Cortex SUV” value (Time 22.5 min) was 1.5637 SUV, the “Striatum SUV” value (Time 22.5 min) was 1.618 SUV and the “Whole Brain SUV” value (Time 22.5 min) was 1.572 SUV. For the same compound, the “Cerebellum SUV” value (Time 27.5 min) was 1.345 SUV, the “Cortex SUV” value (Time 27.5 min) was 1.403 SUV and the “Striatum SUV” value (Time 27.5 min) was 1.574 SUV. The “Whole Brain SUV” value (Time 27.5 min) was 1.421 SUV, the “Cerebellum SUV” value (Time 32.5 min) was 1.261 SUV and the “Cortex SUV” value (Time 32.5 min) was 1.245 SUV. The “Striatum SUV” value (Time 32.5 min) was 1.235 SUV, the “Whole Brain SUV” value (Time 32.5 min) was 1.295 SUV and the “Cerebellum SUV” value (Time 37.5 min) was 1.135 SUV. For the same compound, the “Cortex SUV” value (Time 37.5 min) was 1.17 SUV, the “Striatum SUV” value (Time 37.5 min) was 1.248 SUV and the “Whole Brain SUV” value (Time 37.5 min) was 1.205 SUV. The “Cerebellum SUV” value (Time 42.5 min) was 1.059 SUV, the “Cortex SUV” value (Time 42.5 min) was 1.067 SUV and the “Striatum SUV” value (Time 42.5 min) was 1.112 SUV. The “Whole Brain SUV” value (Time 42.5 min) was 1.107 SUV, the “Cerebellum SUV” value (Time 47.5 min) was 1.003 SUV and the “Cortex SUV” value (Time 47.5 min) was 0.9766 SUV. For the same compound, the “Striatum SUV” value (Time 47.5 min) was 0.9755 SUV, the “Whole Brain SUV” value (Time 47.5 min) was 1.028 SUV and the “Cerebellum SUV” value (Time 52.5 min) was 0.8116 SUV. For the same compound, the “Cortex SUV” value (Time 52.5 min) was 0.9384 SUV, the “Striatum SUV” value (Time 52.5 min) was 0.9527 SUV and the “Whole Brain SUV” value (Time 52.5 min) was 0.9734 SUV. The “Cerebellum SUV” value (Time 57.5 min) was 0.7605 SUV, the “Cortex SUV” value (Time 57.5 min) was 0.8664 SUV and the “Striatum SUV” value (Time 57.5 min) was 0.8933 SUV. The “Whole Brain SUV” value (Time 57.5 min) was 0.9139 SUV, the “Cerebellum SUV” value (Time 62.5 min) was 0.7211 SUV and the “Cortex SUV” value (Time 62.5 min) was 0.8233 SUV. The “Striatum SUV” value (Time 62.5 min) was 0.8081 SUV, the “Whole Brain SUV” value (Time 62.5 min) was 0.8807 SUV and the “Cerebellum SUV” value (Time 67.5 min) was 0.724 SUV. For the same compound, the “Cortex SUV” value (Time 67.5 min) was 0.803 SUV, the “Striatum SUV” value (Time 67.5 min) was 0.7461 SUV and the “Whole Brain SUV” value (Time 67.5 min) was 0.8223 SUV. For the same compound, the “Cerebellum SUV” value (Time 72.5 min) was 0.6837 SUV, the “Cortex SUV” value (Time 72.5 min) was 0.7452 SUV and the “Striatum SUV” value (Time 72.5 min) was 0.6547 SUV. For the same compound, the “Whole Brain SUV” value (Time 72.5 min) was 0.7875 SUV, the “Cerebellum SUV” value (Time 77.5 min) was 0.6351 SUV and the “Cortex SUV” value (Time 77.5 min) was 0.7071 SUV. The “Striatum SUV” value (Time 77.5 min) was 0.5968 SUV, the “Whole Brain SUV” value (Time 77.5 min) was 0.7547 SUV and the “Cerebellum SUV” value (Time 82.5 min) was 0.6873 SUV. The “Cortex SUV” value (Time 82.5 min) was 0.6833 SUV, the “Striatum SUV” value (Time 82.5 min) was 0.7378 SUV and the “Whole Brain SUV” value (Time 82.5 min) was 0.7187 SUV. For the same compound, the “Cerebellum SUV” value (Time 87.5 min) was 0.5841 SUV, the “Cortex SUV” value (Time 87.5 min) was 0.6805 SUV and the “Striatum SUV” value (Time 87.5 min) was 0.6765 SUV. For the same compound, the “Whole Brain SUV” value (Time 87.5 min) was 0.6934 SUV, the “time to peak whole brain uptake” value (both baboons) was ~ 2 min and the “2:90 min SUV ratio” value (female baboon) was ~ 3.6. The “whole brain peak uptake” value (female baboon) was ~ 1.9 SUV, the “2:90 min SUV ratio” value (male baboon) was ~ 3.7 and the “whole brain peak uptake” value (male baboon) was ~ 2.8 SUV.
